Experiment: plasticizer lost from sensor membrane over use life, remaining plasticizer determined by UPLC
Type: physicochemical
Conditions: membranes in RAPIDPoint systems, at least 25 days, about 10 whole blood samples per business day
Protocol: Membrane formulations were prepared by using NPOE or ETH 217 plasticizers with polyvinylchloride, magnesium ionophore and lipohilic ion exchange salt. The materials were dissolved in a suitable organic solvent at a solids ratio of 10%. The solutions were deposited on the sensor substrates and the solvent allowed to evaporate yielding the formed membranes. The formulations were optimized to yield membranes with the best obtainable magnesium selectivity over calcium and were generally at least greater than 1:1.
Sensors were incorporated into RAPIDPoint systems (available from Siemens Healthcare Diagnostics Inc.) and tested over at least 25 days. During this time, sensors were calibrated with magnesium containing reagents and exposed to whole blood samples at approximately 10 per business day. In addition, magnesium containing quality control solutions were also run across least 25 days at least once every day. After testing the membranes were removed from the sensor substrate and the amount of remaining plasticizer was determined by UPLC and so the amount of plasticizer lost over time was calculated.

% by wt Plasticizer Lost: 3.9%
SMILES: CCCCCCCCCCCCOc1ccccc1[N+](=O)[O-] [ETH 217, 1-dodecyloxy-2-nitrobenzene]
